Measurements reported in patent US9643957B2, “Heterocyclic compounds having cholesterol 24-hydroxylase activity” (TAKEDA PHARMACEUTICAL COMPANY LIMITED, priority 2012, dated 2017).

Key:
human CH24H = biological target: T1, human CH24H (Homo sapiens, UniProt Q9Y6A2); assay: Measurement of CH24H inhibitory activity (24-HC produced from [14C] cholesterol by human CH24H lysate); type: biochemical; details: 1 μM test compound, [14C] cholesterol 15 μM, 37° C. for 5 hr, read-out: Inhibitory Rate in 1 μM (%)
T1 construct: Using Full-Length Mammalian Gene Collection No. 4819975 (Invitrogen) as a template; made in house; host or cells: FreeStyle 293-F cells, transient transfection with pcDNA3.1(+)/hCH24H; lysate supernatant, not purified
Outline: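 Human CH24H lysate from FreeStyle 293 cells was incubated with compound and 15 μM [14C]cholesterol in 50 mM potassium phosphate pH 7.4 with 0.1% BSA, for 5 h at 37 °C. The 24-HC formed was extracted, separated by silica TLC and quantified by radioactivity. % inhibition was calculated versus no-compound reactions.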

24-HC in the brain = assay: Quantification test of 24-HC in mouse brain after repeated oral administration; type: in vivo; details: 30 mg/kg orally once a day for 3 days, female C57BL/6N mice, brain 24-HC at 16 hours after the third administration, relative to control group, read-out: Decreasing Rate in 30 mg/kg (%)
Protocol: Animals used were 6-week-old female C57BL/6N mice (3 mice/group). A test compound was suspended in a 0.5% aqueous methylcellulose [133-14255 WAKO] solution (1 mg/mL). The body weight of the mice was measured, and the solution was forcibly administered orally and repeatedly once a day for 3 days. At 16 hours after the third administration, half of the brain was harvested, and the amount of 24-HC was measured.
The wet weight of the brain was measured, and the brain was homogenized with 4-fold amount of saline. This solution was used as a brain extract. The 24-HC in the brain extract was extracted with an acetonitrile solution (98% acetonitrile, 1.98% methanol, 0.02% formic acid), and quantified by HPLC. The average value of 24-HC amount was calculated and the results are shown in relative values with the control group as 100%.

T1 sequence (Q9Y6A2 whole entry): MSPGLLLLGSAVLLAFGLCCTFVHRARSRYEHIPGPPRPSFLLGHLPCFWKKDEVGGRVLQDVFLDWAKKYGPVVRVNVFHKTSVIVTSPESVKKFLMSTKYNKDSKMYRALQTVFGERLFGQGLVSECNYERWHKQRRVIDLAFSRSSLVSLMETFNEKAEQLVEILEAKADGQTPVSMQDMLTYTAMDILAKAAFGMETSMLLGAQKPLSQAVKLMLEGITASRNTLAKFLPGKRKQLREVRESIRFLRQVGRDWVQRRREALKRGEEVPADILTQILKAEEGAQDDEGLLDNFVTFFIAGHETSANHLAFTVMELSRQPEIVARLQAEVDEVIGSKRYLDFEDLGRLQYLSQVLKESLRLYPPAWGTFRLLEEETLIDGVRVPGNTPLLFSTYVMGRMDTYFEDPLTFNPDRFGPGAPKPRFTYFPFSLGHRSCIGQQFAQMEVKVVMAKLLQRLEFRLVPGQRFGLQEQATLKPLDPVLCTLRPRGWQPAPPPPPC

SMILES | inhibition at 1 µM (human CH24H) [%] | inhibition in vivo at 30 mg/kg (24-HC in the brain) [%]
Cc1cnn(-c2ccncc2N2CCC(C(=O)N3CCC[C@@H]3C(N)=O)CC2)c1 [Example 124, 1-((1-(4-(4-methyl-1H-pyrazol-1-yl)pyridin-3-yl)piperidin-4-yl)carbonyl)-D-prolinamide] | 81 | 59
N#C[C@H]1CCCN1C(=O)C1CCN(c2cnccc2-n2cc(Cl)cn2)CC1 [Example 33, (2R)-1-((1-(4-(4-chloro-1H-pyrazol-1-yl)pyridin-3-yl)piperidin-4-yl)carbonyl)pyrrolidine-2-carbonitrile] | 96 | 49
N#C[C@H]1CCCN1C(=O)C1CCN(c2cnccc2-c2ccccn2)CC1 [Example 142, (2R)-1-((1-(2,4′-bipyridine-3′-yl)piperidin-4-yl)carbonyl)pyrrolidine-2-carbonitrile] | 93 | 69
Cc1cnc(-c2ccncc2N2CCC(C(=O)N3CCC[C@@H]3C#N)CC2)s1 [Example 129, (2R)-1-((1-(4-(5-methyl-1,3-thiazol-2-yl)pyridin-3-yl)piperidin-4-yl)carbonyl)pyrrolidine-2-carbonitrile] | 82 | 44
COC[C@H]1CCCN1C(=O)C1CCN(c2cnccc2-c2nnc(C)s2)CC1 [Example 133, ((2R)-2-(methoxymethyl)pyrrolidin-1-yl)(1-(4-(5-methyl-1,3,4-thiadiazol-2-yl)pyridin-3-yl)piperidin-4-yl)methanone] | 87 | 70
Cc1cnn(-c2ccncc2N2CCC(C(=O)N3CC(F)(F)C[C@@H]3C#N)CC2)c1 [Example 130, (2R)-4,4-difluoro-1-((1-(4-(4-methyl-1H-pyrazol-1-yl)pyridin-3-yl)piperidin-4-yl)carbonyl)pyrrolidine-2-carbonitrile] | 93 | 54
Cc1nnc(-c2ccncc2N2CCC(C(=O)N3CC(F)(F)C[C@@H]3C#N)CC2)s1 [Example 132, (2R)-4,4-difluoro-1-((1-(4-(5-methyl-1,3,4-thiadiazol-2-yl)pyridin-3-yl)piperidin-4-yl)carbonyl)pyrrolidine-2-carbonitrile] | 87 | 65
Cc1cnn(-c2ccncc2N2CCC(C(=O)N3CCC[C@]3(C)C#N)CC2)c1 [Example 127, (2R)-2-methyl-1-((1-(4-(4-methyl-1H-pyrazol-1-yl)pyridin-3-yl)piperidin-4-yl)carbonyl)pyrrolidine-2-carbonitrile] | 79 | 44
Cc1ccc(-c2ccncc2N2CCN(C(=O)CC3CC3)CC2)cc1 [Example 148, 2-cyclopropyl-1-(4-(4-(4-methylphenyl)pyridin-3-yl)piperazin-1-yl)ethanone] | 92 | 
CN(C(=O)C1CCN(c2cncnc2-c2ccc(F)cc2)CC1)[C@@H]1CCOC1 [Example 310, 1-(4-(4-fluorophenyl)pyrimidin-5-yl)-N-methyl-N-((3R)-tetrahydrofuran-3-yl)piperidine-4-carboxamide] | 82 | 
Cc1cnn(-c2ccncc2N2CCC(C(=O)N3CC[C@H](F)C3)CC2)c1 [Example 282, ((3S)-3-fluoropyrrolidin-1-yl)(1-(4-(4-methyl-1H-pyrazol-1-yl)pyridin-3-yl)piperidin-4-yl)methanone] | 83 | 
